Assay results as given in US20120309622A1, “HERBICIDES CONTAINING SUBSTITUTED THIEN-3-YL-SULPHONYLAMINIO(THIO)CARBONYL-TRIAZOLIN(ETHI)ONES” (BAYER INTELLECTUAL PROPERTY GMBH, priority 2001, published 2012).

How the values were obtained:
Assay in all cases: Post-emergence test/greenhouse, % damage after three weeks
Assay type in all cases: in vivo
[1] = test system: Avena fatua
From the text: (§1) The expected action for a given combination of two herbicides can be calculated as follows (cf. COLBY, S. R.: “Calculating synergistic and antagonistic responses of herbicide combinations”, Weeds 15, pages 20-22, 1967):
(§2) If • X=% damage by herbicide A (active compound of the formula I) at an application rate of p kg/ha and • Y=% damage by herbicide B (active compound of the formula II) at an application rate of q kg/ha and • E=the expected damage of herbicides A+B at an application rate of p+q kg/ha, then
(§3) If the actual damage exceeds the calculated value, the combination has a superadditive effect, that is to say a synergistic effect.
(§4) Test plants are grown under control conditions (temperature and light). Once the plants have reached a height of 5 to 15 cm, the test compound or the combination of test compounds is applied by spraying such that the particular amounts of active compound desired are applied per unit area. The concentration of the spray liquor is chosen so that the particular amounts of active compound desired are applied in 500 litres of water/ha.
(§5) Following the spray application, the plant containers are kept in the greenhouse under constant light and temperature conditions.
(§6) After three weeks, the degree of damage to the plants is rated in % damage in comparison to the development of the untreated control.
(§7) The figures denote: • 0%=no effect (like untreated control) • 100%=total destruction

[2] = test system: Setaria viridis
From the text: as §1, §2, §3, §4, §5, §6, §7

[3] = test system: Bromus secalinus
Protocol: as §1, §3
(§8) Test plants are grown under control conditions (temperature and light).
as §5, §6

[4] = test system: Xanthium strumarium
From the text: as §1, §2, §3, §4, §5, §6, §7

[5] = test system: Chenopodium album
From the text: as §1, §2, §3, §4, §5, §6, §7

[6] = test system: Alopecurus myosuroides
From the text: as §1, §2, §3, §4, §5, §6, §7

[7] = test system: Cyperus esculentus
From the text: as §1, §2, §3, §4, §5, §6, §7

[8] = test system: Veronica persicaria
Protocol: as §1, §3, §8, §5, §6

[9] = test system: Cassia tora
Protocol: as §1, §3, §8, §5, §6

[10] = test system: Digitaria sanguinalis
From the text: as §1, §2, §3, §4, §5, §6, §7

[11] = test system: Polygonum convolvolus
[12] = test system: Abutilon theophrasti
From the text: as §1, §2, §3, §4, §5, §6, §7

[13] = test system: Matricaria inodora
From the text: as §1, §2, §3, §4, §5, §6, §7

[14] = test system: Lolium perenne
[15] = test system: Eriochloa villosa
[16] = Bromus secalinus, post-emergence, 504 h, 8 g of ai/ha, read-out: Bromus secalinus observed
[17] = Bromus secalinus, post-emergence, 504 h, 2 g of ai/ha, read-out: Bromus secalinus observed
[18] = Bromus secalinus, post-emergence, 504 h, 4 g of ai/ha, read-out: Bromus secalinus observed

Compound: COc1cc(OC)nc(NC(=O)NS(=O)(=O)N(C)S(C)(=O)=O)n1 [amidosulfuron, N-(4,6-di-methoxypyrimidin-2-yl)-N′—(N-methyl-N-methylsulphonylsulphamoyl)urea, reference compound]
- Avena fatua observed ([1]; 8 g of ai/ha): 0%
- Avena fatua observed ([1]; 15 g of ai/ha): 0%
- Setaria viridis observed ([2]; 8 g of ai/ha): 0%
- Setaria viridis observed ([2]; 15 g of ai/ha): 30%
- pest or weed control at 8 g/ha [3, 16]: 0%

Compound: COC(=O)c1cc(Oc2ccc(Cl)cc2Cl)ccc1[N+](=O)[O-] [bifenox, methyl 5-(2,4-dichlorophenoxy)-2-nitrobenzoate, reference compound]
- Avena fatua observed ([1]; 60 g of ai/ha): 10%
- Avena fatua observed ([1]; 125 g of ai/ha): 10%
- Avena fatua observed ([1]; 250 g of ai/ha): 10%
- Xanthium strumarium observed ([4]; 60 g of ai/ha): 60%
- Xanthium strumarium observed ([4]; 125 g of ai/ha): 60%
- Xanthium strumarium observed ([4]; 250 g of ai/ha): 70%
- pest or weed control at 60 g/ha ([3]; Bromus secalinus, post-emergence, 504 h, 60 g of ai/ha, read-out: Bromus secalinus observed): 0%
- pest or weed control at 125 g/ha ([3]; Bromus secalinus, post-emergence, 504 h, 125 g of ai/ha, read-out: Bromus secalinus observed): 0%
- pest or weed control at 250 g/ha ([3]; Bromus secalinus, post-emergence, 504 h, 250 g of ai/ha, read-out: Bromus secalinus observed): 10%

Compound: N#Cc1cc(Br)c(O)c(Br)c1 [bromoxynil, 3,5-dibromo-4-hydroxybenzonitrile, reference compound]
- Activity against Chenopodium album (%) ([5]; 250 g of a.i./ha): 80%

Compound: CCOC(=O)C(Cl)Cc1cc(-n2nc(C)n(C(F)F)c2=O)c(F)cc1Cl (stereo not drawn) [carfentrazone-ethyl, 2-(4-chloro-2-fluoro-5-(2-chloro-2-ethoxycarbonylethyl)phenyl)-4-difluoromethyl-5-methyl-2,4-dihydro-3H-1,2,4-triazol-3-one, reference compound]
- Alopecurus myosuroides observed ([6]; 8 g of ai/ha): 0%
- Chenopodium album observed ([5]; 2 g of ai/ha): 0%
- Chenopodium album observed ([5]; 4 g of ai/ha): 30%
- Chenopodium album observed ([5]; 8 g of ai/ha): 50%
- Cyperus esculentus observed ([7]; 4 g of ai/ha): 0%
- Cyperus esculentus observed ([7]; 8 g of ai/ha): 30%

Compound: COc1c(Cl)ccc(Cl)c1C(=O)O [dicamba, 3,6-dichloro-2-methoxybenzoic acid, reference compound]
- Alopecurus myosuroides observed ([6]; 30 g of ai/ha): 0%
- Alopecurus myosuroides observed ([6]; 60 g of ai/ha): 0%
- Cyperus esculentus observed ([7]; 30 g of ai/ha): 0%
- Cyperus esculentus observed ([7]; 125 g of ai/ha): 0%
- Veronica persicaria observed ([8]; 60 g of ai/ha): 40%

Compound: COc1ncc(F)c2nc(S(=O)(=O)Nc3c(F)cccc3F)nn12 [florasulam]
- Bromus secalinus observed ([3]; 2 g of ai/ha): 30%
- Bromus secalinus observed ([3]; 4 g of ai/ha): 30%
- Cassia tora observed ([9]; 4 g of ai/ha): 0%
- Veronica persicaria observed ([8]; 4 g of ai/ha): 70%

Compound: COC(=O)c1ccc(C(F)(F)F)nc1S(=O)(=O)NC(=O)Nc1nc(OC)cc(OC)n1.[Na] [flupyrsulfuron, N-(4,6-dimethoxypyrimidin-2-yl)-N′-(3-methoxycarbonyl-6-trifluoromethylpyridin-2-ylsulphonyl)urea sodium salt, reference compound]
- Digitaria sanguinalis observed ([10]; 4 g of ai/ha): 20%
- pest or weed control at 2 g/ha [3, 17]: 0%
- pest or weed control at 4 g/ha [3, 18]: 0%
- Polygonum convolvolus observed ([11]; 2 g of ai/ha): 70%
- Polygonum convolvolus observed ([11]; 4 g of ai/ha): 80%

Compound: COC(=O)c1ccc(CNS(C)(=O)=O)cc1S(=O)(=O)NC(=O)Nc1nc(OC)cc(OC)n1 [mesosulfuron]
- Cyperus esculentus observed ([7]; 8 g of ai/ha): 70%
- Cyperus esculentus observed ([7]; 15 g of ai/ha): 70%
- Bromus secalinus observed ([3]; 8 g of ai/ha): 0%

Compound: CS(=O)(=O)c1ccc(C(=O)C2C(=O)CCCC2=O)c([N+](=O)[O-])c1 [mesotrione]
- Alopecurus myosuroides observed ([6]; 15 g of ai/ha): 0%
- Alopecurus myosuroides observed ([6]; 30 g of ai/ha): 0%
- pest or weed control at 15 g/ha ([3]; Bromus secalinus, post-emergence, 504 h, 15 g of ai/ha, read-out: Bromus secalinus observed): 0%
- pest or weed control at 30 g/ha ([3]; Bromus secalinus, post-emergence, 504 h, 30 g of ai/ha, read-out: Bromus secalinus observed): 0%
- Polygonum convolvolus observed ([11]; 15 g of ai/ha): 50%

Compound: COc1cc(OC)n2nc(S(=O)(=O)Nc3c(Cl)ccc(C)c3Cl)nc2n1 [metosulam, N-(2,6-dichloro-3-methylphenyl)-5,7-dimethoxy-1,2,4-tri-azolo[1,5-a]-pyrimidine-2-sulphonamide, reference compound]
- Activity against Abutilon theophrasti (%) ([12]; 12.5 g of a.i./ha): 60%
- Activity against Abutilon theophrasti (%) ([12]; 25 g of a.i./ha): 70%
- Avena fatua observed ([1]; 8 g of ai/ha): 0%
- Digitaria sanguinalis observed ([10]; 8 g of ai/ha): 30%
- Activity against Xanthium strumarum (%) ([4]; 12.5 g of a.i./ha): 60%
- Activity against Xanthium strumarum (%) ([4]; 25 g of a.i./ha): 90%
- Veronica persicaria observed ([8]; 4 g of ai/ha): 80%

Compound: CSc1nnc(C(C)(C)C)c(=O)n1N [metribuzin]
- Matricaria inodora observed ([13]; 30 g of ai/ha): 0%
- Xanthium strumarium observed ([4]; 30 g of ai/ha): 40%

Compound: COc1nc(C)nc(=NC(=O)NS(=O)(=O)c2ccccc2C(=O)O)[nH]1 [metsulfuron]
- Cyperus esculentus observed ([7]; 4 g of ai/ha): 30%
- pest or weed control at 2 g/ha [3, 17]: 0%
- pest or weed control at 4 g/ha [3, 18]: 0%
- Lolium perenne observed ([14]; 2 g of ai/ha): 70%

Compound: COc1cc(OC)nc(NC(=O)NS(=O)(=O)c2ncccc2C(=O)N(C)C)n1 [nicosulfuron]
- Eriochloa villosa observed ([15]; 30 g of ai/ha): 90%

Compound: O=C(Nc1ccc(F)cc1)c1cccc(Oc2cccc(C(F)(F)F)c2)n1 [picolinafen]
- Cassia tora observed ([9]; 30 g of ai/ha): 70%
- Eriochloa villosa observed ([15]; 15 g of ai/ha): 30%
- Eriochloa villosa observed ([15]; 30 g of ai/ha): 80%
- Lolium perenne observed ([14]; 15 g of ai/ha): 0%
- Lolium perenne observed ([14]; 30 g of ai/ha): 20%

Compound: CCCOc1nn(C(=O)[N-]S(=O)(=O)c2ccccc2C(=O)OC)c(=O)n1C.[Na+] [propoxycarbazone-sodium]
- Cassia tora observed ([9]; 30 g of ai/ha): 30%
- Veronica persicaria observed ([8]; 60 g of ai/ha): 40%
- Polygonum convolvolus observed ([11]; 30 g of ai/ha): 0%
- Polygonum convolvolus observed ([11]; 60 g of ai/ha): 0%

Compound: CCS(=O)(=O)c1cccnc1S(=O)(=O)NC(=O)Nc1nc(OC)cc(OC)n1 [rimsulfuron]
- Abutilon theophrasti observed ([12]; 4 g of ai/ha): 70%
- Avena fatua observed ([1]; 4 g of ai/ha): 70%
- Avena fatua observed ([1]; 8 g of ai/ha): 70%
- Cassia tora observed ([9]; 4 g of ai/ha): 60%
- Cassia tora observed ([9]; 8 g of ai/ha): 80%

Compound: COC(=O)c1ccccc1S(=O)(=O)NC(=O)N(C)c1nc(C)nc(OC)n1 [tribenuron-methyl]
- Cyperus esculentus observed ([7]; 4 g of ai/ha): 0%
- Cyperus esculentus observed ([7]; 8 g of ai/ha): 0%
- pest or weed control at 4 g/ha [3, 18]: 0%
- pest or weed control at 8 g/ha [3, 16]: 0%
- Veronica persicaria observed ([8]; 4 g of ai/ha): 90%

Compound: COc1nc(NC(=O)NS(=O)(=O)c2ccccc2C(F)(F)F)nc(C(F)(F)F)n1 [tritosulfuron]
- Digitaria sanguinalis observed ([10]; 15 g of ai/ha): 30%
- Digitaria sanguinalis observed ([10]; 30 g of ai/ha): 40%
- Setaria viridis observed ([2]; 30 g of ai/ha): 0%
- Lolium perenne observed ([14]; 15 g of ai/ha): 0%
- Lolium perenne observed ([14]; 30 g of ai/ha): 0%

Compound: glyphosate
- Bromus secalinus observed ([3]; 125 g of ai/ha): 20%
- Bromus secalinus observed ([3]; 250 g of ai/ha): 80%
- Veronica persicaria observed ([8]; 250 g of ai/ha): 50%
- Eriochloa villosa observed ([15]; 250 g of ai/ha): 70%

Compound: imazamox
- Digitaria sanguinalis observed ([10]; 8 g of ai/ha): 30%
- Matricaria inodora observed ([13]; 8 g of ai/ha): 30%
- Matricaria inodora observed ([13]; 15 g of ai/ha): 50%
- Bromus secalinus observed ([3]; 8 g of ai/ha): 60%

Compound: thifensulfuron-methyl
- Setaria viridis observed ([2]; 15 g of ai/ha): 0%
- Bromus secalinus observed ([3]; 8 g of ai/ha): 0%
- Bromus secalinus observed ([3]; 15 g of ai/ha): 0%
- Eriochloa villosa observed ([15]; 15 g of ai/ha): 10%
